Test results reported in US12709760B2, “KIR 7.1 gene therapy vectors and methods of using the same” (WISCONSIN ALUMNI RESEARCH FOUNDATION, priority 2018, dated 2026).
Entries after “also recorded” stand apart in the source; their conditions may differ.

Columns and labels:
[1] = test system: Kir7.1 channel in LCA16 iPSC-RPE cells; assay: Whole-cell patch clamp of LCA16 patient-derived iPSC-RPE cells; format: cell-based, human
Protocol: Electrophysiology. Standard whole cell patch clamp on single cells were performed as described^6 Briefly, the tight monolayer of hiPSC-RPE grown on a 6.5 mm transwell was dissociated into a single cell suspension as follows: the medium in which cells were maintained was completely removed and the cells were washed twice with 0NaCMF solution (135 mM NMDG-Cl, 5 mM KCl, 10 mM HEPES, 10 mM Glucose, 2 mM EDTA-KOH and adjusted to pH 7.4 with NMDG free base). The cells were then incubated with 0NaCMF containing papain (2.5 μl/ml), cysteine (0.3 mg/ml), glutathione (0.25 mg/ml) and taurine (0.05 mg/ml) for 45 mins at 37° C. The cells were rinsed with 0NaCMF solution to remove enzymes, resuspended in HEPES-Ringer's (HR) solution [NaCl (135 mM), KCl (5 mM), CaCl2) (1.8 mM), MgCl2 (1 mM), HEPES (10 mM), D-glucose (10 mM), pH 7.4±0.1 with NaOH, prepared in ddH2O], and kept on ice for up to 8 hrs until used for electrophysiological recording.
Single hiPSC-RPE cells with distinct apical processes were chosen for conventional patch clamping. Patch pipettes with a resistance of […] were fabricated from borosilicate capillaries using a pipet puller (P-1000®, Sutter instruments). The glass electrode was then fire polished using a microforge (MF-830®, Narshige). Data acquisition and the holding potential parameters were controlled using the Clampex® software (Axon instruments). Current recorded from the successful patch was amplified using Axopatch 200-B® (Axon Instruments) and filtered at 2 KHz. The signal was digitized using digidata 1400A® (Axon instruments) and analyzed using Clampfit® (Axon Instruments). During patch clamping, HR solution was continuously perfused as an external solution. The patch pipette was filled with solution containing 30 mM KCl, 83 mM K-gluconate, 5.5 mM EGTA-KOH, 0.05 mM CaCl2), 4 mM MgCl2, 10 mM HEPES, pH adjusted to 7.2 with KOH and filtered using the 0.2 μm filter.

[2] = test system: Kir7.1 Trp53Ter protein in CHO-K1 cells; assay: Immunoprecipitation / Western blot of GFP-fused Kir7.1 Trp53Ter protein after read-through; format: cell-based; settings: Kir7.1-GFP fusion W53X, NB84-treated cells, anti-GFP
[3] = LCA16 hiPSC-RPE subgroup, 100 or 500 μM NB84

For C[C@@H](O)C1O[C@H](O[C@@H]2C(N)C[C@@H](NC(=O)[C@@H](O)CCN)[C@@H](O)C2O[C@@H]2O[C@H](CN)[C@H](O)C2O)[C@@H](N)C(O)[C@@H]1O (some centres unmarked) [NB84], the “Current amplitude rescue in a subpopulation of cells” value [1, 3] was “no rescue in current amplitude”, the “Membrane potential rescue in a subpopulation of cells” value [1, 3] was “rescue of membrane potential to control levels” and the “Enhancement of current by Rb+” value ([1]; LCA16 iPSC-RPE, 500 μM NB84) was 10 fold. The “Current amplitude upon introduction of Rb+” value ([1]; LCA16 iPSC-RPE, 500 μM NB84, high external Rb+, −150 mV, n=8) was −1562.7±546.7 pA, the “Kir7.1 current amplitude, normal external K+” value ([1]; LCA16 iPSC-RPE, 500 μM NB84, inward current at −150 mV, n=8) was −94.3±24 pA and the Membrane potential ([1]; LCA16 iPSC-RPE, NB84-treated cells, n=10) was −56.3±3.6 mV. The “Resting membrane potential versus control level” value ([1]; LCA16 iPSC-RPE, bar graph comparison FIG. 7D) was “recovery of LCA16 iPSC-RPE to control level” and the “Full-length Kir7.1 protein product” value [2] was “a protein band equivalent to the full-length product was detected; also recorded: partial restoration of the full-length protein product”.
